The source of these data is the supplement of paper PMC10307832.

Compound in assay [1]: O=C(/C=C/c1ccccc1)NC(NC(=S)Nc1cccc2cccnc12)C(Cl)(Cl)Cl [Salubrinal]
Nature of the assay: relative viability (nuclei count vs DMSO), 5 days (fraction); higher = more cells survive. The essentials:
(§1)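 Lung cancer cell lines received five library-drug doses (not always all listed) spaced by √10, pinned on vehicle-anchored 1536-well plates after an overnight stay at 37 °C. Five days later, with no medium change, nuclei were Hoechst-stained, imaged at 4× and counted with MetaXpress. Viability is treated-well nuclei relative to vehicle-well nuclei, as a median across plates. Passing plates had control CV below 25% and at least one doubling.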

Compound in assay [2]: Cc1ccc2nc(NCCN)c3ncc(C)n3c2c1
The assay is described as above. The essentials: as §1

As for NCI-H2228, the relative viability in assay [1] (0.08 µM) was found to be 1.23; in assay [1] (0.253 µM) it was 0.757; in assay [1] (0.8 µM) it was 1.21; in assay [1] (2.53 µM), 1.04; in assay [1] (8 µM), 0.968; in assay [2] (0.04 µM) it was 1.15. Also, the relative viability in assay [2] (0.1265 µM) came to 0.992; in assay [2] (0.4 µM), 1.03; in assay [2] (1.265 µM), 0.915; in assay [2] (4 µM), 0.838.
NCI-H2342: the relative viability was 1.04 in assay [1] (0.08 µM); 0.88 in assay [1] (0.253 µM); 1.07 in assay [1] (0.8 µM); 1.03 in assay [1] (2.53 µM); 0.858 in assay [1] (8 µM); 1.19 in assay [2] (0.04 µM). Besides, the relative viability is 1.08 in assay [2] (0.1265 µM), 0.989 in assay [2] (0.4 µM), 1.08 in assay [2] (1.265 µM) and 0.841 in assay [2] (4 µM).
Consider NCI-H2347, for which the relative viability in assay [1] (0.08 µM) came to 0.94; in assay [1] (0.253 µM), 1.03; in assay [1] (0.8 µM), 1.15; in assay [1] (2.53 µM), 1.08; in assay [1] (8 µM) it was 1.07; in assay [2] (0.04 µM) it was 1.06. Further, the relative viability in assay [2] (0.1265 µM) turned out to be 1.12; in assay [2] (0.4 µM) it was 0.911; in assay [2] (1.265 µM), 0.986; in assay [2] (4 µM), 0.962.
For the cell line NCI-H2405, the relative viability in assay [1] (0.08 µM) worked out at 1.01; in assay [1] (0.253 µM) it was 1.03; in assay [1] (0.8 µM), 1.09; in assay [1] (2.53 µM), 1.03; in assay [1] (8 µM), 0.966; in assay [2] (0.04 µM), 1.02. For the same cell line, the relative viability in assay [2] (0.1265 µM) was found to be 1.01; in assay [2] (0.4 µM), 1.03; in assay [2] (1.265 µM), 1.05; in assay [2] (4 µM), 0.915.
For the cell line NCI-H3122, the relative viability in assay [1] (0.08 µM) turned out to be 1.08; in assay [1] (0.253 µM) it was 1; in assay [1] (0.8 µM) it was 1.09; in assay [1] (2.53 µM), 1.05; in assay [1] (8 µM), 1.01; in assay [2] (0.04 µM), 0.998. The relative viability in assay [2] (0.1265 µM) came to 0.988; in assay [2] (0.4 µM), 0.999; in assay [2] (1.265 µM), 1.06; in assay [2] (4 µM), 1.01.
Take PC-3 [JPC-3]: the relative viability in assay [1] (0.08 µM) was 1.05; in assay [1] (0.253 µM) it was 0.915; in assay [1] (0.8 µM), 1.16; in assay [1] (2.53 µM), 1.04; in assay [1] (8 µM), 0.969; in assay [2] (0.04 µM), 1.01. The relative viability came to 1.05 in assay [2] (0.1265 µM), 1 in assay [2] (0.4 µM), 1.09 in assay [2] (1.265 µM) and 0.998 in assay [2] (4 µM).
PC-14: the relative viability in assay [1] (0.08 µM) turned out to be 1.11; in assay [1] (0.253 µM) it was 0.96; in assay [1] (0.8 µM) it was 1.13; in assay [1] (2.53 µM), 1; in assay [1] (8 µM), 0.862; in assay [2] (0.04 µM), 1.04. Moreover, the relative viability came to 0.963 in assay [2] (0.1265 µM), 0.927 in assay [2] (0.4 µM), 0.917 in assay [2] (1.265 µM) and 0.671 in assay [2] (4 µM).
Regarding RERF-LC-KJ, the relative viability in assay [1] (0.08 µM) came to 1.05; in assay [1] (0.253 µM) it was 1.02; in assay [1] (0.8 µM), 1.04; in assay [1] (2.53 µM), 0.98; in assay [1] (8 µM) it was 0.888; in assay [2] (0.04 µM), 1.03. In addition, the relative viability in assay [2] (0.1265 µM) amounted to 0.996; in assay [2] (0.4 µM), 0.93; in assay [2] (1.265 µM), 0.938; in assay [2] (4 µM), 0.823.
For the cell line SK-LU-1, the relative viability in assay [1] (0.08 µM) was 1.11; in assay [1] (0.253 µM), 0.905; in assay [1] (0.8 µM), 1.19; in assay [1] (2.53 µM), 1.11; in assay [1] (8 µM) it was 0.878; in assay [2] (0.04 µM), 1.06. For the same cell line, the relative viability is 1 in assay [2] (0.1265 µM), 1.03 in assay [2] (0.4 µM), 1.05 in assay [2] (1.265 µM) and 0.976 in assay [2] (4 µM).
With SK-MES-1, the relative viability was found to be 1.14 in assay [1] (0.08 µM); 0.997 in assay [1] (0.253 µM); 1.09 in assay [1] (0.8 µM); 0.988 in assay [1] (2.53 µM); 0.945 in assay [1] (8 µM); 1.05 in assay [2] (0.04 µM). Besides, the relative viability in assay [2] (0.1265 µM) is 1.01; in assay [2] (0.4 µM), 0.984; in assay [2] (1.265 µM), 1.01; in assay [2] (4 µM) it was 0.992.
For SW 900, the relative viability in assay [1] (0.08 µM) came out at 1.06; in assay [1] (0.253 µM) it was 0.718; in assay [1] (0.8 µM), 0.941; in assay [1] (2.53 µM), 0.933; in assay [1] (8 µM) it was 1.04; in assay [2] (0.04 µM), 0.878. The relative viability in assay [2] (0.1265 µM) stood at 0.897; in assay [2] (0.4 µM), 0.584; in assay [2] (1.265 µM) it was 0.779; in assay [2] (4 µM), 0.941.
SW 1573: the relative viability in assay [1] (0.08 µM) was 1.07; in assay [1] (0.253 µM), 1.05; in assay [1] (0.8 µM), 1.03; in assay [1] (2.53 µM) it was 0.998; in assay [1] (8 µM) it was 0.994; in assay [2] (0.04 µM) it was 0.989. Besides, the relative viability in assay [2] (0.1265 µM) came out at 1.02; in assay [2] (0.4 µM) it was 1; in assay [2] (1.265 µM), 1.05; in assay [2] (4 µM), 0.776.
